These results are taken from article PMC5218480 (PLoS ONE, 2017).

Molecules are shown by their SMILES.

The test system of the assay is MV-4-11 cells. In words: Gene expression microarray analysis (Affymetrix PrimeView) and GSEA. Format: cell-based, human. The conditions noted are these: MV-4-11, 48 hours, 1 μM each.

For the compound `Nc1ncn([C@@H]2O[C@H](CO)[C@@H](O)[C@H]2O)c(=O)n1` [azacitidine], the “genes down-regulated greater than 2-fold relative to vehicle control” value came out at 12 genes.
